Measured values as given in US9474790B2, “Stable, protracted GLP-1/glucagon receptor co-agonists for medical use” (Novo Nordisk A/S, priority 2013, dated 2016).
Numbered stars: 1 amine (or outer) side, 2 acyl side, 3 side chain; on linkers, the order of the positions; unused ones are H or OH. Square brackets hold non-standard residues; d marks the D form. Side chains are listed from the residue outwards. Peptide text beside a SMILES is read from it. * marks the point of attachment. C18 diacid = O=C(O)CCCCCCCCCCCCCCCCC(=O)*; γGlu = O=C(O)[C@H](CCC(=O)[*:2])N[*:1]; AEEA = NCCOCCOCC(=O)O; Aib = CC(C)(N)C(=O)O

Columns and labels:
human GLP-1 receptor [1] = target: T1, human GLP-1 receptor (Homo sapiens, UniProt P43220); assay: GLP-1 receptor potency, CRE luciferase reporter gene assay in BHK cells; format: cell-based; details: BHK cells expressing human GLP-1 receptor, read-out: EC50 GLP-1R
T1 construct: expressed in transfected cells; host or cells: BHK cells (parent BHKTS13), clone FCW467-12A/KZ10-1, with CRE luciferase
T1 sequence (P43220 24-463): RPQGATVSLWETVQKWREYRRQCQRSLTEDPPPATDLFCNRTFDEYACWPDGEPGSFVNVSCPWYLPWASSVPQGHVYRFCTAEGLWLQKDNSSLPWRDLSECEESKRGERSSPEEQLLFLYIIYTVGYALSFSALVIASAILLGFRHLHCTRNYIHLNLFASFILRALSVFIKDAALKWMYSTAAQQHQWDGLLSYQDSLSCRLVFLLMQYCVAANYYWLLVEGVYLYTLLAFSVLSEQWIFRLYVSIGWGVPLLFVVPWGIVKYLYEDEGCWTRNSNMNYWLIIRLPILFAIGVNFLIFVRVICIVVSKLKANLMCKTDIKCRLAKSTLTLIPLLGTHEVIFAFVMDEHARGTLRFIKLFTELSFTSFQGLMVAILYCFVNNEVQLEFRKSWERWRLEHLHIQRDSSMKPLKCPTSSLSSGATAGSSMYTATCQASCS
In short: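 Potency as cAMP-driven firefly luciferase signal after 3 h, 37° C exposure to 10-fold dilutions (final 1×10EE-13–1×10EE-6 M). Stable hGLP-1R/CRE-luc BHK clone, 5×10EE3 cells/well, medium containing 2% ovalbumin and 0.2% Pluronic F-68; EC50 (pM) from variable-slope non-linear regression.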

human GLP-1 receptor [2] = target: T1, human GLP-1 receptor; assay: GLP-1 receptor binding, 125I-GLP-1 displacement SPA on isolated membranes; details: displacement of 125I-GLP-1 from membranes; read-out: IC50 GLP-1R
In short: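 Test derivatives, serially diluted, competed with 125I-GLP-1(7-36)NH2 for the human GLP-1 receptor on BHK membranes, read by WGA-bead scintillation proximity after 2 h at 30°C, pH 7.4 HEPES/EGTA/MgCl2 buffer. Final serum albumin was either ≤0.001% or 2.0%; IC50 from non-linear fit.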

[3] = Thioflavin T (ThT) fibrillation assay for physical stability; format: physicochemical; details: 250 μM in 10 mM HEPES buffer, pH 7.5, 37° C., shaking 960 rpm
In short: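 Fibrillation was followed by ThT (1 μM) fluorescence every 20 min, 444/485 nm, for 250 μM peptide in 10 mM HEPES pH 7.5 shaken at 960 rpm, 37° C. Lag time (t0−2τ) and apparent rate constant (1/τ) come from a sigmoidal fit. Recovery is % of initial concentration remaining soluble after centrifugation and filtration (RP-HPLC).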

[4] = Chemical stability assessment by RP-UPLC; format: physicochemical; details: 333 μM, 8 mM phosphate buffer pH 7.3, 37° C. vs 5° C.
Protocol: The purpose of this assay was to assess the chemical stability of the glucagon derivatives of the invention in aqueous solutions.
Chemical stability of glucagon derivatives or analogues was investigated by RP-UPLC separation and UV detection. Lyophilized samples were dissolved in a 8 mM Phosphate buffer pH 8.6, followed by adjustment to pH 7.3.using HCl to a final concentration of 333 μM. Samples were incubated for 14 days at 5° C. and 37° C. followed by RP-UPLC analysis. Purity was defined as the area percentage of the main peak in relation to the total area of all integrated peaks in each chromatogram. Purity loss after 14 days at 37° C. was determined as the difference in purity between the samples incubated at 5° C. and 37° C., divided by the purity of the sample after incubation for 14 days at 5° C.
RP-UPLC analysis was performed using a Waters BEH130 2.1 mm×150 mm, 1.7 μm column operated at 50° C. and a flow rate of 0.4 mL/min using a mobile phase system consisting of A: 0.05% TFA in MQ-water B: 0.05% TFA in Acetonitrile. UV-detection was performed at 215 nm. The typical gradient profile used for most of the samples is shown below.
For some individual derivatives or analogues eluting at substantially different retention times compared with the majority of derivatives or analogues, some adjustments to the gradient profile were made to better enable purity assessment comparison across samples. The data confirmed the improved chemical stability of the glucagon derivatives of this invention.

Row | EC50 (human GLP-1 receptor [1]) [pM] | IC50 (human GLP-1 receptor [2]) [pM] | THT assay Lag time (Ex. 76) [3] [h] | Purity loss; 14 days at 37° C. [4] [%] | SMILES
1 | 3 | 200 | – | – | CC(C)C[C@H](NC(=O)[C@H](Cc1ccc(O)cc1)NC(=O)[C@H](CCCCN)NC(=O)[C@H](CO)NC(=O)[C@H](CC(C)C)NC(=O)[C@H](CC(=O)O)NC(=O)[C@H](CO)NC(=O)[C@@H](NC(=O)[C@H](Cc1ccccc1)NC(=O)[C@@H](NC(=O)CNC(=O)[C@H](CCC(N)=O)NC(=O)C(C)(C)NC(=O)[C@@H](N)Cc1c[nH]cn1)[C@@H](C)O)[C@@H](C)O)C(=O)N[C@@H](CCC(=O)O)C(=O)N[C@@H](CO)C(=O)N[C@@H](CCCNC(=N)N)C(=O)N[C@@H](CCCNC(=N)N)C(=O)N[C@@H](C)C(=O)N[C@@H](CCCNC(=N)N)C(=O)N[C@@H](CC(=O)O)C(=O)N[C@@H](Cc1ccccc1)C(=O)N[C@H](C(=O)N[C@@H](CCC(N)=O)C(=O)N[C@@H](Cc1c[nH]c2ccccc12)C(=O)N[C@@H](CC(C)C)C(=O)N[C@@H](CC(C)C)C(=O)N[C@@H](CCCCNC(=O)COCCOCCNC(=O)COCCOCCNC(=O)CC[C@H](NC(=O)CC[C@H](NC(=O)CC[C@H](NC(=O)CCCCCCCCCCCCCCCCC(=O)O)C(=O)O)C(=O)O)C(=O)O)C(=O)N[C@H](C(N)=O)[C@@H](C)O)C(C)C [Example 57, N^ε28-[2-[2-[2-[(2-[2-[2-[[(4S)-4-carboxy-4-[[(4S)-4-carboxy-4-[[(4S)-4-carboxy-4-(17-carboxyheptadecanoylamino)butanoyl]amino]butanoyl]amino]butanoyl]amino]ethoxy]ethoxy]acetyl]amino]ethoxy]ethoxy]acetyl]-[Aib2,Leu10,Glu15,Arg20,Leu27,Lys28]-Glucagon amide] (H-H[Aib]QGTFTSDLSKYLESRRARDFVQWLLK([AEEA-AEEA-γGlu-γGlu-γGlu-C18 diacid])T-NH2; N-terminus assumed)
2 | 3 | 500 | – | – | CC(C)C[C@H](NC(=O)[C@H](Cc1ccc(O)cc1)NC(=O)[C@H](CCCNC(=N)N)NC(=O)[C@H](CO)NC(=O)[C@@H](NC(=O)[C@H](CC(=O)O)NC(=O)[C@H](CO)NC(=O)[C@@H](NC(=O)[C@H](Cc1ccccc1)NC(=O)[C@@H](NC(=O)CNC(=O)[C@H](CCC(N)=O)NC(=O)C(C)(C)NC(=O)[C@@H](N)Cc1c[nH]cn1)[C@@H](C)O)[C@@H](C)O)C(C)C)C(=O)N[C@@H](CC(=O)O)C(=O)N[C@@H](C)C(=O)N[C@@H](CCCNC(=N)N)C(=O)N[C@@H](CCCNC(=N)N)C(=O)N[C@@H](C)C(=O)N[C@@H](CCC(N)=O)C(=O)N[C@@H](CC(=O)O)C(=O)N[C@@H](Cc1ccccc1)C(=O)N[C@H](C(=O)N[C@@H](CCC(N)=O)C(=O)N[C@@H](Cc1c[nH]c2ccccc12)C(=O)N[C@@H](CC(C)C)C(=O)N[C@@H](CC(C)C)C(=O)N[C@@H](CCCCNC(=O)COCCOCCNC(=O)COCCOCCNC(=O)CC[C@H](NC(=O)CC[C@H](NC(=O)CC[C@H](NC(=O)CCCCCCCCCCCCCCCCC(=O)O)C(=O)O)C(=O)O)C(=O)O)C(=O)N[C@H](C(N)=O)[C@@H](C)O)C(C)C [Example 72, N^ε28-[2-[2-[2-[(2-[2-[2-[[(4S)-4-carboxy-4-[[(4S)-4-carboxy-4-[[(4S)-4-carboxy-4-(17-carboxyheptadecanoylamino)butanoyl]amino]butanoyl]amino]butanoyl]amino]ethoxy]ethoxy]acetyl]amino]ethoxy]ethoxy]acetyl]-[Aib2,Val10,Arg12,Ala16,Leu27,Lys28]-Glucagon amide] (H-H[Aib]QGTFTSDVSRYLDARRAQDFVQWLLK([AEEA-AEEA-γGlu-γGlu-γGlu-C18 diacid])T-NH2)
3 | 3 | 900 | – | – | CC(C)C[C@H](NC(=O)[C@H](Cc1ccc(O)cc1)NC(=O)[C@H](CCCNC(=N)N)NC(=O)[C@H](CO)NC(=O)[C@H](CC(C)C)NC(=O)[C@H](CC(=O)O)NC(=O)[C@H](CO)NC(=O)[C@@H](NC(=O)[C@H](Cc1ccccc1)NC(=O)[C@@H](NC(=O)CNC(=O)[C@H](CCC(N)=O)NC(=O)C(C)(C)NC(=O)[C@@H](N)Cc1c[nH]cn1)[C@@H](C)O)[C@@H](C)O)C(=O)N[C@@H](CC(=O)O)C(=O)N[C@@H](C)C(=O)N[C@@H](CCCNC(=N)N)C(=O)N[C@@H](CCCNC(=N)N)C(=O)N[C@@H](C)C(=O)N[C@@H](CCC(N)=O)C(=O)N[C@@H](CC(=O)O)C(=O)N[C@@H](Cc1ccccc1)C(=O)N[C@H](C(=O)N[C@@H](CCC(N)=O)C(=O)N[C@@H](Cc1c[nH]c2ccccc12)C(=O)N[C@@H](CC(C)C)C(=O)N[C@@H](CC(C)C)C(=O)N[C@@H](CCCCNC(=O)COCCOCCNC(=O)COCCOCCNC(=O)CC[C@H](NC(=O)CC[C@H](NC(=O)CC[C@H](NC(=O)CCCCCCCCCCCCCCCCC(=O)O)C(=O)O)C(=O)O)C(=O)O)C(=O)N[C@H](C(N)=O)[C@@H](C)O)C(C)C [Example 64, N^ε28-[2-[2-[2-[[2-[2-[2-[[(4S)-4-carboxy-4-[[(4S)-4-carboxy-4-[[(4S)-4-carboxy-4-(17-carboxyheptadecanoylamino)butanoyl]amino]butanoyl]amino]butanoyl]amino]ethoxy]ethoxy]acetyl]amino]ethoxy]ethoxy]acetyl]-[Aib2,Leu10,Arg12,Ala16,Leu27,Lys28]-Glucagon amide] (H-H[Aib]QGTFTSDLSRYLDARRAQDFVQWLLK([AEEA-AEEA-γGlu-γGlu-γGlu-C18 diacid])T-NH2; N-terminus assumed)
4 | – | – | 45 | 1 | CC(C)C[C@H](NC(=O)[C@H](Cc1ccc(O)cc1)NC(=O)[C@H](CCCCN)NC(=O)[C@H](CO)NC(=O)[C@H](CC(C)C)NC(=O)[C@H](CC(=O)O)NC(=O)[C@H](CO)NC(=O)[C@@H](NC(=O)[C@H](Cc1ccccc1)NC(=O)[C@@H](NC(=O)CNC(=O)[C@H](CCC(N)=O)NC(=O)C(C)(C)NC(=O)[C@@H](N)Cc1c[nH]cn1)[C@@H](C)O)[C@@H](C)O)C(=O)N[C@@H](CCC(=O)O)C(=O)N[C@@H](CO)C(=O)N[C@@H](CCCCN)C(=O)N[C@@H](CCCNC(=N)N)C(=O)N[C@@H](C)C(=O)N[C@@H](CCCNC(=N)N)C(=O)N[C@@H](CCC(=O)O)C(=O)N[C@@H](Cc1ccccc1)C(=O)N[C@H](C(=O)N[C@@H](CCC(N)=O)C(=O)N[C@@H](Cc1c[nH]c2ccccc12)C(=O)N[C@@H](CC(C)C)C(=O)N[C@@H](CC(C)C)C(=O)N[C@@H](CCCCNC(=O)CC[C@H](NC(=O)CC[C@H](NC(=O)COCCOCCNC(=O)COCCOCCNC(=O)CC[C@H](NC(=O)CCCCCCCCCCCCCCCCC(=O)O)C(=O)O)C(=O)O)C(=O)O)C(=O)N[C@H](C(N)=O)[C@@H](C)O)C(C)C [Example 22, N^ε29-[(4S)-4-carboxy-4-[[(4S)-4-carboxy-4-[[2-[2-[2-[[2-[2-[2-[[(4S)-4-carboxy-4-(17-carboxyheptadecanoylamino)butanoyl]amino]ethoxy]ethoxy]acetyl]amino]ethoxy]ethoxy]acetyl]amino]butanoyl]amino]butanoyl]-[Aib2,Leu10,Glu15,Lys17,Arg20,Glu21,Leu27,Lys28]-Glucagon amide] (H-H[Aib]QGTFTSDLSKYLESKRAREFVQWLLK([γGlu-γGlu-AEEA-AEEA-γGlu-C18 diacid])T-NH2; N-terminus assumed)
